Columns and labels:
[1] = Example 2: animal weight and drug toxicity in MV522 xenograft mice; format: in vivo, athymic nu/nu mice
Procedure: Female nude mice (Hsd: Athymic Nude-Foxn1^nu) between 5 and 6 weeks of age weighing approximately 20 grams were obtained from Harlan, Inc. (Madison, Wis.). Animals were injected subcutaneously (SC) with approximately 1×10^7 MV522 cells harvested from tissue culture (1:1 matrigel:media). When tumors grew to approximately 100 cubic millimeters (mm^3) in size, animals were pair-matched by tumor size into treatment and control groups. Animals were ear-tagged and followed individually throughout the experiment.
Initial doses were administered on Day 1 following pair-matching. The experiment was carried out as both a tumor growth inhibition (TGI) and tumor growth delay (TGD) study. For TGI, the endpoint was when the average tumor volume of Group 1 reached 1.2 cm^3. For TGD, the endpoint was reached when each individual animal's tumor volume reached 1.0 cm^3. A 10 mg/ml stock vial of docetaxel was diluted in 0.9% saline on each day of dosing and administered intravenously (IV).
Individual and group mean weights ±SD and percent weight change were recorded twice weekly until study completion beginning Day 1. Group weights through Day 24 or 53 and weight nadir values are reported.

[2] = system: stage IIIb/IV non-small cell lung cancer; experiment: Example 3: clinical study, efficacy (overall survival, response rate), Arm DN vs Arm D; format: in vivo, human (NSCLC patients); settings: for OS / Response Rate: Arm DN (30 mg/m^2) vs Arm D
Procedure: The investor applied the optimum plinabulin and docetaxel combination treatment schedule derived from MV522 animal studies in NSCLC patients. Patients received therapy on Day 1 and Day 8 in 3-week cycles. Therapy on Day 1 consisted of 75 mg/m^2 docetaxel administered via intravenous infusion (IV) over 1 hour, followed 2 hours later (from the time the docetaxel infusion begins) by 30 mg/m^2 plinabulin administered via intravenous infusion (IV) over 30 minutes. Therapy on Day 8 consisted of 20 mg/m^2 or 30 mg/m^2 plinabulin administered via intravenous infusion (IV) over 30 minutes.
To compare the overall survival of patients with NSCLC treated with docetaxel to patients treated with docetaxel+plinabulin.
Secondary: • 1. To compare the response rate, duration of response, 6-month survival, and progression free survival in patients with NSCLC treated with docetaxel to patients with docetaxel+plinabulin; • 2. To compare the safety and adverse events profile of docetaxel to docetaxel+plinabulin.
This was an open-label study in patients with advanced NSCLC that had progressed after treatment with at least 1 chemotherapy regimen. Patients were randomized to receive either docetaxel plus plinabulin (DN) or docetaxel alone (75 mg/m^2) (D). 2 dosing cohorts were investigated: • 1) 30 mg/m^2 dosing cohort: Approximately 110 patients were to be randomized (1:1) to receive either docetaxel plus plinabulin at 30 mg/m^2 (DN 30 mg/m^2 arm) or docetaxel alone (D arm); • 2) 20 mg/m^2 dosing cohort: Approximately 57 patients were to be randomized (2:1) to receive either docetaxel plus plinabulin at 20 mg/m^2 (DN 20 mg/m^2 arm) or docetaxel (D arm) alone.
Patients received therapy on Day 1 and Day 8 in 3-week cycles.
Therapy on Day 1 consisted of 75 mg/m^2 docetaxel administered via intravenous infusion (IV) over 1 hour, followed 2 hours later (from the time the docetaxel infusion began) by placebo (Arm D) or 30 mg/m^2 or 20 mg/m^2 plinabulin (Arm DN) DN administered via intravenous infusion (IV) over 30 minutes. Oral dexamethasone (16 mg) was given the day prior to, the day of and the day following docetaxel infusion (Day 1). Therapy on Day 8 consisted of placebo (Arm D) or 30 mg/m^2 or 20 mg/m^2 plinabulin (Arm DN) administered via intravenous infusion (IV) over 30 minutes.
Patients with stage IIIb/IV non-small cell lung cancer that has progressed after treatment with at least one chemotherapy regimen.
Assessment of response to treatment occurred during the rest period of the second cycle (and approximately every 2 cycles thereafter).
Comparisons were made of efficacy endpoints between Arm D and Arm DN. The primary efficacy endpoint is overall survival. Secondary endpoints include response rate, duration of response, quality of life, neutropenia rate and G-CSF usage.
The distributions of overall survival and any other time-to-event endpoints were summarized using the Kaplan-Meier method. The log-rank test was used to compare the efficacy endpoints between treatment groups. All statistical tests were carried out using one-sided tests at the 5% level of significance. The primary objective of this trial is to assess the effect of the addition of plinabulin on overall survival.

[3] = system: NSCLC; settings: wide type NSCLC patients (stage IIIb/IV, second line), docetaxel 75 mg/m^2; cited from earlier work
[4] = G2: docetaxel 15 mg/kg IV + NPI-2358 vehicle 1 h after
[5] = G3: docetaxel 15 mg/kg IV + NPI-2358 vehicle 4 h after
[6] = G4: docetaxel 15 mg/kg IV + NPI-2358 vehicle 24 h after
[7] = G11: docetaxel 25 mg/kg IV + NPI-2358 vehicle 1 h after
[8] = G12: docetaxel 25 mg/kg IV + NPI-2358 vehicle 4 h after
[9] = G13: docetaxel 25 mg/kg IV + NPI-2358 vehicle 24 h after

**Q.** For CC(=O)O[C@@]12CO[C@@H]1C[C@H](O)[C@@]1(C)C(=O)[C@H](O)C3=C(C)[C@@H](OC(=O)[C@H](O)[C@@H](NC(=O)OC(C)(C)C)c4ccccc4)C[C@@](O)([C@@H](OC(=O)c4ccccc4)[C@H]21)C3(C)C [Docetaxel, docetaxel], which “Final weight - Day 24 % change” value [1, 4] is on record?
**A.** Its value is “+13%”.

**Q.** What about the “Final weight - Day 24 AVG +/− SD” value [1, 4] of the same molecule?
**A.** The value was 22 ± 1 g.

**Q.** And the “Weight nadir % change” value [1, 4]?
**A.** The value was −14%.

**Q.** What about the Weight nadir day [1, 4] of the same molecule?
**A.** Its Weight nadir day is 10.

**Q.** What about the “Final weight - Day 24 % change” value [1, 5] of the same molecule?
**A.** The value was “+12%”.

**Q.** And the “Final weight - Day 24 AVG +/− SD” value [1, 5]?
**A.** The value was 23 ± 2 g.

**Q.** And the “Weight nadir % change” value [1, 5]?
**A.** Its value is −10%.

**Q.** What about the Weight nadir day [1, 5] of the same molecule?
**A.** Its Weight nadir day is 10.

**Q.** What about the “Final weight - Day 24 % change” value [1, 6] of the same molecule?
**A.** Its value is “+17%”.

**Q.** What about the “Final weight - Day 24 AVG +/− SD” value [1, 6] of the same molecule?
**A.** Its value is 23 ± 2 g.

**Q.** What about the “Weight nadir % change” value [1, 6] of the same molecule?
**A.** The value was −10%.

**Q.** And the Weight nadir day [1, 6]?
**A.** The Weight nadir day was 10.

**Q.** And the “Final weight - Day 24 % change” value [1, 7]?
**A.** The value was −10%.

**Q.** And the “Final weight - Day 24 AVG +/− SD” value [1, 7]?
**A.** Its value is 18 ± 2 g.

**Q.** What about the “Weight nadir % change” value [1, 7] of the same molecule?
**A.** The value was −13%.

**Q.** What about the Weight nadir day [1, 7] of the same molecule?
**A.** The Weight nadir day was 17.

**Q.** And the “Final weight - Day 24 % change” value [1, 8]?
**A.** The value was −11%.

**Q.** What about the “Final weight - Day 24 AVG +/− SD” value [1, 8] of the same molecule?
**A.** Its value is 17 ± 2 g.

**Q.** And the “Weight nadir % change” value [1, 8]?
**A.** Its value is −14%.

**Q.** What about the Weight nadir day [1, 8] of the same molecule?
**A.** The Weight nadir day was 10.

**Q.** What about the “Final weight - Day 24 % change” value [1, 9] of the same molecule?
**A.** Its value is −12%.

**Q.** And the “Final weight - Day 24 AVG +/− SD” value [1, 9]?
**A.** The value was 17 ± 3 g.

**Q.** What about the “Weight nadir % change” value [1, 9] of the same molecule?
**A.** The value was −20%.

**Q.** And the Weight nadir day [1, 9]?
**A.** Its Weight nadir day is 17.

**Q.** What about the “Overall survival (OS)” value ([2]; 30 mg/m^2 group, all patients, docetaxel 75 mg/m^2) of the same molecule?
**A.** Its value is 7.5 M.

**Q.** What about the OS ([2]; All Patients) of the same molecule?
**A.** Its OS is 7.5 month.

**Q.** What about the “Response Rate” value ([2]; All Patients) of the same molecule?
**A.** The value was 14.5%.

**Q.** And the OS ([2]; largest primary tumor >3 cm)?
**A.** Its OS is 7.5 month.

**Q.** What about the “Response Rate” value ([2]; largest primary tumor >3 cm) of the same molecule?
**A.** The value was 13.9%.

**Q.** And the OS ([2]; largest primary tumor >5 cm)?
**A.** The OS was 6.7 month.

**Q.** What about the “Response Rate” value ([2]; largest primary tumor >5 cm) of the same molecule?
**A.** The value was 15%.

**Q.** And the OS ([2]; largest primary tumor >7 cm)?
**A.** Its OS is 5.03 month.

**Q.** And the “Response Rate” value ([2]; largest primary tumor >7 cm)?
**A.** Its value is 20%.

**Q.** What about the OS ([2]; largest primary tumor ≤3 cm) of the same molecule?
**A.** Its OS is 6.5 month.

**Q.** What about the “Response Rate” value ([2]; largest primary tumor ≤3 cm) of the same molecule?
**A.** Its value is 15.8%.

**Q.** And the “Overall survival (OS)” value ([2]; subgroup all tumor <3 cm, plinabulin 30 mg/m^2)?
**A.** The value was 6.47 M.

**Q.** And the “Overall survival (OS)” value ([2]; subgroup at least one tumor with diameter greater than 3 cm, plinabulin 30 mg/m^2)?
**A.** Its value is 7.8 M.

**Q.** What about the OS [3] of the same molecule?
**A.** Its OS is 8.2 months.

— patent publication US10596169B2, “Cancer treatment with combination of plinabulin and taxane” (BeyondSpring Inc., priority 2013, dated 2020)
